# Source: patent CN101862374A, “莲子心及其提取物的新用途” (Individual, priority 2010, dated 2010)
# How the values were obtained:
# autoxidation [自氧化] = conditions: cited from earlier work
# [1] = system: oxidatively damaged erythrocytes [氧化损伤红细胞]; conditions: cited from earlier work
# [2] = system: type II 5α-reductase [II型5α-还原酶]; assay: Spectrophotometric (NADPH, 340 nm) 5α-reductase inhibition; type: biochemical; conditions: for mean inhibition rate: NADPH consumption, 10 min, 37 °C, serial concentrations, average; for inhibition rate compared with finasteride: versus finasteride [非那甾胺]
# [3] = system: type II 5α-reductase [II型5α-还原酶]; assay: DHT kit assay of 5α-reductase inhibition; type: biochemical; conditions: 37 °C, 30 min
# [4] = system: prostate smooth muscle α1-AR [前列腺平滑肌α1-AR]; assay: Competitive inhibition of 125IBE binding to α1-AR of prostate smooth muscle membranes; design: species or system rat; conditions: high dose
# [5] = system: hyperlipidemia model rats [高血脂症模型大鼠]; conditions: rat; cited from earlier work
# [6] = system: platelets of hyperlipidemia patients and healthy persons [高脂血症患者和健康人血小板]; conditions: in vitro, blood, several inducers; cited from earlier work
# [7] = system: experimental hyperlipidemic rats [实验性高脂血症大鼠]; conditions: rat; cited from earlier work
# [8] = system: rat cerebral ischemia-reperfusion [大鼠脑缺血再灌注]; conditions: cited from earlier work
# [9] = system: rat myocardium with ischemia-reperfusion injury [大鼠缺血再灌注损伤心肌]; conditions: cited from earlier work
smiles,measurement,setting,value
COc1ccc(C[C@@H]2c3cc(Oc4cc(C[C@@H]5c6cc(O)c(OC)cc6CCN5C)ccc4O)c(OC)cc3CCN2C)cc1 [异莲心碱],inhibition of autoxidation,autoxidation [自氧化],能显著抑制自氧化
same,protection of oxidatively damaged erythrocytes,[1],对氧化损伤红细胞有保护作用
same,mean inhibition rate,[2],65.48%
same,inhibition rate compared with finasteride,[2],强于非那甾胺
same,inhibition of 5α-reductase activity by change of DHT concentration,[3],有明显抑制作用
COc1ccc(C[C@@H]2c3cc(Oc4cc(C[C@@H]5c6cc(OC)c(OC)cc6CCN5C)ccc4O)c(OC)cc3CCN2C)cc1 [甲基莲心碱],inhibition of prostate smooth muscle α1-AR,[4],能抑制前列腺平滑肌α1-AR
same,antioxidant action of the organism,[5],增强机体抗氧化作用
same,degree of lipid peroxidation,[5],减轻脂质过氧化的程度
same,effect on blood lipids,[5],具有显著的抑制作用
same,mean inhibition rate,[2],68.22%
same,inhibition rate compared with finasteride,[2],强于非那甾胺
same,inhibition of platelet aggregation,[6],可明显抑制多种诱聚剂诱导的高脂血症患者和健康人血小板聚集
same,inhibition of 5α-reductase activity by change of DHT concentration,[3],有明显抑制作用
COc1cc2c(cc1OC)[C@@H](Cc1ccc(O)c(Oc3cc4c(cc3OC)CCN(C)[C@@H]4Cc3ccc(O)cc3)c1)N(C)CC2 [莲心碱],atherosclerosis index,[7],显著降低
same,serum low-density lipoprotein cholesterol,[7],显著降低
same,serum total cholesterol,[7],显著降低
same,serum triglycerides,[7],显著降低
same,C-Fos protein expression after cerebral ischemia-reperfusion,[8],抑制脑缺血再灌注后NOS和C-Fos蛋白的表达
same,NOS expression after cerebral ischemia-reperfusion,[8],抑制脑缺血再灌注后NOS和C-Fos蛋白的表达
same,extent of infarct lesion,[8],可显著减少大鼠梗死病灶范围
same,inhibition of prostate smooth muscle α1-AR,[4],能抑制前列腺平滑肌α1-AR
same,mean inhibition rate,[2],71.43%
same,inhibition of 5α-reductase activity (in words),[2]; by NADPH determination,有明显抑制作用
same,inhibition rate compared with finasteride,[2],强于非那甾胺
same,area of myocardial infarction,[9],可减少心肌梗死的面积
same,damage of myocardial cells,[9],减轻心肌细胞的损伤
same,protection of ischemia-reperfusion injured myocardium,[9],有保护作用
same,inhibition of 5α-reductase activity by change of DHT concentration,[3],有明显抑制作用
"CC(C)(C)NC(=O)[C@H]1CC[C@H]2[C@@H]3CC[C@H]4NC(=O)C=C[C@]4(C)[C@H]3CC[C@]12C [非那雄胺, reference compound]",mean inhibition rate,[2],57.14%
